Test results published in patent US20220105051A1, “COMPOUNDS FOR INCREASING MHC-I EXPRESSION AND MODULATING HISTONE DEACETYLASE ACTIVITY” (Cava Healthcare Inc., priority 2019, published 2022).
“Also recorded” adds a separate entry of the source.

Key:
[1] = tested on: TAP, MHC class I, and HDACs 8 and 10; assay: mRNA expression in A9 cells (RT-PCR); format: cell-based, murine; conditions: 0.064 μmol
From the text: (§1) Methods primarily used: Fluorescence Activated Cell Sorting (FACS), western blot, RealTime-PCR (RT-PCR), Proteome Profiler Mouse Cytokine Array Kit (Panel A).

[2] = tested on: A9 cells; assay: Proteome Profiler Mouse XL cytokine array on A9 cells; format: cell-based, murine; conditions: 0.014 mg/ml (0.064 umol) vs DMSO
Procedure: as §1
Upon addition of 0.014 mg/ml (0.064 umol) of Curcuphenol, there was a change in the cytokine production of A9 cells, relative to that of cells treated with only vehicle DMSO. This treatment was done in 2 mL of DMEM media, at an initial seeding density of 1×10^6 A9 cells, and treatment with Curcuphenol in DMSO vehicle or DMSO vehicle was done 24 hours after seeding A9 cells. A9 cells are murine metastatic epithelial carcinoma cells. Cytokine change was seen using the Proteome Profiler Mouse XL cytokine array (R&D Systems, ARY028).

[3] = tested on: A9 metastatic tumour cells; assay: In vivo tumour trial; set-up: species or system C57BL/6 mice; conditions: daily i.p. for 12 days; for anti-tumour effect compared among the treatments / tumour volume / tumour growth compared to vehicle control: A9 tumours; for anti-tumour effect compared among the treatments: 5.2 mg/kg; for tumour volume / tumour growth compared to vehicle control / body weight: P02-113 and P03-97-1 5.2 mg/kg, TSA 0.5 mg/kg
Procedure: The metastatic cell line, A9, was grown in the DMEM, as previously described without, the addition of antibiotics (penicillin and streptomycin, P/S). Once cells reached 75-80% confluence, they were trypsinized (0.05%, Gibco) and washed with HBSS (Hanks balanced salt solution). The cells were counted using the Bio-RAD TC20 automated cell counter and suspended to a concentration of […] in HBSS. Thirty-two synergistic female C57BL/6 mice, between the ages 6-8 weeks, were subcutaneously injected in the right flank with 50 μL containing 5×10^4 A9 metastatic tumour cells. Seven days following tumour inoculation i.p. treatment began daily for 12 days. Four treatment groups were studied, with eight animals per group. […] Body weights were measured three times a week and once tumours developed they were measured with calipers and tumour volume was calculated. Twelve days after starting treatment, mice were euthanized and tumours were collected and weighed. The tumours were then processed for flow cytometry analysis. Tumours were cut into small pieces and incubated RPMI (Gibco; with P/S 0.5%, Sodium pyruvate 1%, and L-glutamine 1%) and 3 mg/mL collagenase A (Roche) for one hour at 37° C. with shaking. Dissociated tumour cells were passed through a 100 μm filter and spun down at 15,000×RCF for 3 minutes. The pellet was washed once in FACs buffer (2% FBS in PBS) and spun down. The pellet was next suspended in red blood cell (RBC) lysis buffer and kept at room temperature for 5 minutes before being neutralized by the addition of 5 ml of PBS and spun down. If pellets were still found to contain RBCs this step was repeated. Once all RBCs were removed cells were suspended in FACs buffer to a concentration of 10^7 cells/mL. A total volume of 200 ul of cells from each tumour were added to a 96 well plate (Falcon) and incubated with Fc Blocker (Biolegend, 1:400) for twenty minutes at 4° C. The 96 well plate was spun down at 1,200 rmp for three minutes and supernatant was removed. The cells were then suspended in 150 ul of FACs buffer containing anti-CD8a (PE-Cy7, 1:200, eBioscience) and CD4 (APC, 1:200, Biolegend) antibodies and incubated at 4° Celsius for 20 minutes. The cells were washed twice and spun down using FACs buffer before being to flow cytometry tubes in a final volume of 200 ul of FACs buffer containing 7AAD (Biolegend 1:200). Flow cytometry was performed on LSRII (BDBiosciences) and analysis was done using FlowJo (Flow cytometry Analysis Software).
Treatment of tumour-bearing mice with identified compounds. 5×10^4 A9 cells suspended in HBSS were subcutaneously (s.c.) transplanted into the right flank of 32 eight-week-old female C57BI/6 mice, as previously described 75. […] Body weight and tumours (once established) were measured every 2-4 days (more often as tumour size increased). Tumours were measured using calipers and volume was calculated as following: tumour volume=length×width^2. The tumour growth rate was assessed using methods previously described^28.

SMILES: CC(C)=CCC[C@H](C)c1ccc(C)cc1O [Curcuphenol, curcuphenol]
- mRNA expression of HDAC 8 [1]: increased mRNA expression
- mRNA expression of HDAC 10 [1]: increased mRNA expression
- mRNA expression of MHC class I [1]: increased mRNA expression
- mRNA expression of TAP [1]: increased mRNA expression
- Adiponectin/Acrp30 production [2]: Decrease
- Amphiregulin production [2]: Decrease
- Angiopoietin-1 production [2]: Decrease
- Angiopoietin-2 production [2]: Increase
- Angiopoietin-like 3 production [2]: Increase
- CCL2/JE/MCP-1 production [2]: Decrease
- CCL5/RANTES production [2]: Decrease
- CCL6/C10 production [2]: Decrease
- CCL11/Eotaxin production [2]: Decrease
- CCL12/MCP-5 production [2]: Increase
- CCL17/TARC production [2]: Decrease
- CCL19/MIP-3beta production [2]: Increase
- CCL22/MDC production [2]: Decrease
- CD40/TNFRSF5 production [2]: Increase
- CD160 production [2]: Decrease
- CX3CL1/Fractalkine production [2]: Increase
- CXCL9/MIG production [2]: Decrease
- CXCL10/IP-10 production [2]: Decrease
- CXCL11/I-TAC production [2]: Decrease
- CXCL13/BLC/BCA-1 production [2]: Increase
- CXCL16 production [2]: Increase
- Chemerin production [2]: Decrease
- Coagulation Factor III/Tissue Factor production [2]: Increase
- Cystatin C production [2]: Increase
- DGF-BB production [2]: Increase
- E-Selectin/CD62-E production [2]: Decrease
- Endostatin production [2]: Decrease
- FGF-21 production [2]: Increase
- Flt-3 Ligand production [2]: Decrease
- G-CSF production [2]: Increase
- GDF-15 production [2]: Increase
- Gas 6 production [2]: Increase
- IFN-gamma production [2]: Increase
- IGFBP-2 production [2]: Decrease
- IGFBP-3 production [2]: Decrease
- IGFBP-6 production [2]: Decrease
- IL-1alpha/IL-1F1 production [2]: Increase
- IL-1beta/IL-1F2 production [2]: Increase
- IL-1ra/IL-1F3 production [2]: Increase
- IL-6 production [2]: Decrease
- IL-7 production [2]: Decrease
- IL-10 production [2]: Decrease
- IL-11 production [2]: Decrease
- IL-12 p40 production [2]: Decrease
- IL-13 production [2]: Increase
- IL-15 production [2]: Increase
- IL-28A/B production [2]: Increase
- IL-33 production [2]: Increase
- LIX production [2]: Increase
- Leptin production [2]: No change
- M-CSF production [2]: Decrease
- MMP-2 production [2]: Decrease
- MMP-3 production [2]: Decrease
- Myeloperoxidase production [2]: Increase
- Osteopontin (OPN) production [2]: Increase
- P-Selectin/CD62P production [2]: Decrease
- Pentraxin 2/SAP production [2]: Decrease
- Pentraxin 3/TSG-14 production [2]: Increase
- Periostin/OSF-2 production [2]: No change
- Pref-1/DLK-1/FA1 production [2]: Decrease
- Proliferin production [2]: Increase
- Proprotein Convertase 9/PCSK9 production [2]: No change
- Serpin E1/PAI-1 production [2]: Increase
- Serpin F1/PEDF production [2]: Increase
- TIM-1/KIM-1/HAVCR production [2]: Increase
- TNF-alpha production [2]: Decrease
- VCAM-1/CD106 production [2]: No change
- VEGF production [2]: Increase
- WISP-1/CCN4 production [2]: Decrease

SMILES: CC(C)=CCCCc1ccc(C)cc1O [P02-113]
- anti-tumour effect compared among the treatments [3]: not found to be as significant as P03-97-1 or TSA; also recorded: slightly larger
- tumour volume / tumour growth compared to vehicle control [3]: reduced; also recorded: statistically significant reduction of tumour volume
- tumour volume / tumour growth compared to vehicle control ([3]; listed as PC-02-113): suppresses growth of tumors
- body weight [3]: remained stable; also recorded: no significant changes

SMILES: COc1ccc(C(C)CCC=C(C)C)c(O)c1 (centres unmarked) [P03-97-1]
- anti-tumour effect compared among the treatments [3]: significant anti-tumour effect; also recorded: greater reduction in tumour burden
- tumour volume / tumour growth compared to vehicle control [3]: reduced; also recorded: statistically significant reduction of tumour volume; also recorded: suppresses growth of tumors
- body weight [3]: remained stable; also recorded: no significant changes
